The test system of the data set is HPA axis. Kind of data set: 24-hour urinary cortisol excretion as a measure of HPA suppression. Type of data set: in vivo, human. Particulars: 24 h post-dose urine, single dose, healthy subjects. The source says:
The below examples are used to exemplify the present invention and are in no way meant to narrow the scope of the invention. The examples compare the systemic pharmacokinetic and pharmacodynamic of a MDI made up of two drugs, namely, salmeterol and fluticasone propionate combined in a HFA propellant, namely 134a, with individual salmeterol and fluticasone propionate MDIs in a CFC propellant administered individually and with placebo (HFA 134a propellant alone). Healthy human subjects were given either salmeterol and fluticasone propionate in HFA 134a propellant, salmeterol in P11/P12, fluticasone propionate in P11/P12, or a placebo in HFA 134a propellant, in a randomized, single dose, crossover study. Potential side effects such as increased heart rate and QTc interval were measured. The levels of cortisol in the urine were also measured as a measure of HPA suppression. Twenty healthy human subjects were randomized into one of four treatment groups. […] Cortisol levels were determined from 500 μl of urine by automated immunochemiluminescence on the ASC-180 (Bayer Diagnostics) following preliminary extraction of the urine with dichloromethane. […] For untransformed parameters, the 90% (or 95%) confidence interval for the difference in least squares means was expressed as a ratio of the individual mean.

Experimental findings from US20070122352A1, “Inhalation Drug Combinations” (GLAXO GROUP LIMITED, priority 2001, published 2007) are described below.

The structures appear in SMILES notation.

On to `CCC(=O)O[C@]1(C(=O)SCF)[C@H](C)C[C@H]2[C@@H]3C[C@H](F)C4=CC(=O)C=C[C@]4(C)[C@@]3(F)[C@@H](O)C[C@@]21C` [fluticasone propionate, S-(fluoromethyl)6α,9-difluro-11β,17-dihydroxy-16α-methyl-3-oxoandrosta-1,4-diene-17β-carbothioate,17-propionate], for which the “post-treatment geometric mean urinary cortisol excreted” value was 18.5 µg.
